The target of one experiment is T1, ErbB2 (Homo sapiens, UniProt P04626).
T1 construct: made in house; host or cells: baculovirus expression system
Description: ErbB-2 substrate phosphorylation assay (HTRF). It counts as biochemical. The essentials:
(§1)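 Baculovirus-expressed EGFR (0.8 nM) or ErbB2 (10 nM) in enzyme mix, preincubated 1 h at 20 °C with compound (0.00027–47.6 μM final), then 90 min at 20 °C with substrate mix of 20 μM ATP, 0.8 uM biotinylated Peptide C, MnCl2, MOPS pH 7.5. Phosphotyrosine by HTRF; pIC50 reported.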
(In general: In TR-FRET formats the signal depends on donor and acceptor labels being close together.)

The next experiment concerns Colo205 tumor cells. Description: Cell growth inhibition assay (CellTiter-Glo), Colo205. It counts as cell-based, Human. Particulars: Homo sapiens, COLO 205, 72 h; 3 days incubation. The essentials: (§2)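 Cells plated at 500 cells/well in their growth media, dosed next day with nine-step 1:3 compound dilutions (final DMSO 0.2%), then incubated 3 days at 37° C, 5% CO2. Total ATP read by CellTiter-Glo luminescence as a surrogate for cell number; IC50 interpolated from 4-parameter fit versus DMSO controls.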
(In general: In ATP-based viability assays light output follows the ATP content of the culture.)

The target in a further experiment is B-Raf (Homo sapiens, UniProt P15056). Description: B-Raf Accelerated MEK ATPase assay (BRAMA), Method A or B. Format: biochemical. The conditions noted are these: Method B: final MEK 150 nM, single end point read. The essentials:
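Activated Raf plus non-phosphorylated MEK drives MEK-mediated ATP hydrolysis; ADP formation coupled via pyruvate kinase/lactate dehydrogenase to NADH oxidation. Method A read kinetically; Method B used 150 nM final MEK and a single end-point read.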

A further experiment has as its target T2, EGFR (Homo sapiens, UniProt P00533).
T2 construct: made in house; host or cells: baculovirus expression system
Description: EGFR substrate phosphorylation assay (HTRF). Format: biochemical. The essentials:
as §1

The subject of another experiment is SK-MEL-28 tumor cells. Kind of experiment: Cell growth inhibition assay (CellTiter-Glo), SK-MEL-28. Format: cell-based, Human. Particulars: Homo sapiens, SK-MEL-28, 72 h; 3 days incubation. In outline: as §2

Sequence of B-Raf (P15056 whole entry): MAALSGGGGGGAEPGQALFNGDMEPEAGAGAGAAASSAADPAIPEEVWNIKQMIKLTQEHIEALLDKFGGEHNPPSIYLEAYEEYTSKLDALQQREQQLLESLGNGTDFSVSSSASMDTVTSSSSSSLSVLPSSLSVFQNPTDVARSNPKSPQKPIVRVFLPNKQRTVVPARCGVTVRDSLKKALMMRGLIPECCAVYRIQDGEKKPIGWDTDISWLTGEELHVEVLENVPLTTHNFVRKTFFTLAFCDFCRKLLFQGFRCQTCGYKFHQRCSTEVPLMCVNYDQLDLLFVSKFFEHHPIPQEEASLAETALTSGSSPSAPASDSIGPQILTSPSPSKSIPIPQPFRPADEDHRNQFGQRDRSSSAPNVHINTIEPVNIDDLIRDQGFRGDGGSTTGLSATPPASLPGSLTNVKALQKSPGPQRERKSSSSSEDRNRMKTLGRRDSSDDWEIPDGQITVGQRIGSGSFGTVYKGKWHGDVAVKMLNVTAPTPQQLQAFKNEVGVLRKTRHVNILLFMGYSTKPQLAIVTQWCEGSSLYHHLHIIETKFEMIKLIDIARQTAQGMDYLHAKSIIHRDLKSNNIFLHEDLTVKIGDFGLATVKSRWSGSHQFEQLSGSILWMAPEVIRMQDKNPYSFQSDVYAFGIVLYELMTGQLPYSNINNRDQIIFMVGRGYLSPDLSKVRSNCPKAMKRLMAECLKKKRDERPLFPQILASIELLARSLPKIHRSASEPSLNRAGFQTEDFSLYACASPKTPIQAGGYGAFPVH
T2 sequence (P00533 25-1210): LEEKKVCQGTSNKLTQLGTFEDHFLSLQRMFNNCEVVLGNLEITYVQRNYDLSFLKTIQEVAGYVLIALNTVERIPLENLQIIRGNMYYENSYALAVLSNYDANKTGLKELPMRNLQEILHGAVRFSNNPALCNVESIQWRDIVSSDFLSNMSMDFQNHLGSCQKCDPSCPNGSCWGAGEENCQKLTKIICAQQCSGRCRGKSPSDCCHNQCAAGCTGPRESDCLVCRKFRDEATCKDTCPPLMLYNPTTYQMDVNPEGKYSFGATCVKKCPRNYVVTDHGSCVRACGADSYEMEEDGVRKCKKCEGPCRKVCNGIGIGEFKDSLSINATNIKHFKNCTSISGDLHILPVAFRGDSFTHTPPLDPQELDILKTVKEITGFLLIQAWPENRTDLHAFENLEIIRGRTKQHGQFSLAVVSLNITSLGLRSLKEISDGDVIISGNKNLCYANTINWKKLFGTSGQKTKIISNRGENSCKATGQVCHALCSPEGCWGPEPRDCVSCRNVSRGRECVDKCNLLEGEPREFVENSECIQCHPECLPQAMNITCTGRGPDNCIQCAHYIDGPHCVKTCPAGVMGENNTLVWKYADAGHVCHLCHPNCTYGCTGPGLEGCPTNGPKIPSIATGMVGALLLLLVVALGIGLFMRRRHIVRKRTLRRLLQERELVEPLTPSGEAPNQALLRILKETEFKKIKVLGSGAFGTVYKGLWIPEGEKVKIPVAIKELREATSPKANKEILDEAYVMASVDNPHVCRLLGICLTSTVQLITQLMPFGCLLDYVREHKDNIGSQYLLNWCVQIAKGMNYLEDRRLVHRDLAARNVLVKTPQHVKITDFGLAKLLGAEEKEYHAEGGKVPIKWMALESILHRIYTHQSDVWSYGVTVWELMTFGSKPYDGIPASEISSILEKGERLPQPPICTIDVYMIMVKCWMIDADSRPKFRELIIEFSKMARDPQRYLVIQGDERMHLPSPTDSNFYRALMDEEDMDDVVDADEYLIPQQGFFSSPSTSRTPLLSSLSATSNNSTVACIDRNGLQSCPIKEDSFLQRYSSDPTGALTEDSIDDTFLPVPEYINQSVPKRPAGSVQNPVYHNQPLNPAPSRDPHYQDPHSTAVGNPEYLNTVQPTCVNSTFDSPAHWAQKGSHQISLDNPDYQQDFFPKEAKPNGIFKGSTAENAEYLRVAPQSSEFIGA
T1 sequence (P04626 23-1255): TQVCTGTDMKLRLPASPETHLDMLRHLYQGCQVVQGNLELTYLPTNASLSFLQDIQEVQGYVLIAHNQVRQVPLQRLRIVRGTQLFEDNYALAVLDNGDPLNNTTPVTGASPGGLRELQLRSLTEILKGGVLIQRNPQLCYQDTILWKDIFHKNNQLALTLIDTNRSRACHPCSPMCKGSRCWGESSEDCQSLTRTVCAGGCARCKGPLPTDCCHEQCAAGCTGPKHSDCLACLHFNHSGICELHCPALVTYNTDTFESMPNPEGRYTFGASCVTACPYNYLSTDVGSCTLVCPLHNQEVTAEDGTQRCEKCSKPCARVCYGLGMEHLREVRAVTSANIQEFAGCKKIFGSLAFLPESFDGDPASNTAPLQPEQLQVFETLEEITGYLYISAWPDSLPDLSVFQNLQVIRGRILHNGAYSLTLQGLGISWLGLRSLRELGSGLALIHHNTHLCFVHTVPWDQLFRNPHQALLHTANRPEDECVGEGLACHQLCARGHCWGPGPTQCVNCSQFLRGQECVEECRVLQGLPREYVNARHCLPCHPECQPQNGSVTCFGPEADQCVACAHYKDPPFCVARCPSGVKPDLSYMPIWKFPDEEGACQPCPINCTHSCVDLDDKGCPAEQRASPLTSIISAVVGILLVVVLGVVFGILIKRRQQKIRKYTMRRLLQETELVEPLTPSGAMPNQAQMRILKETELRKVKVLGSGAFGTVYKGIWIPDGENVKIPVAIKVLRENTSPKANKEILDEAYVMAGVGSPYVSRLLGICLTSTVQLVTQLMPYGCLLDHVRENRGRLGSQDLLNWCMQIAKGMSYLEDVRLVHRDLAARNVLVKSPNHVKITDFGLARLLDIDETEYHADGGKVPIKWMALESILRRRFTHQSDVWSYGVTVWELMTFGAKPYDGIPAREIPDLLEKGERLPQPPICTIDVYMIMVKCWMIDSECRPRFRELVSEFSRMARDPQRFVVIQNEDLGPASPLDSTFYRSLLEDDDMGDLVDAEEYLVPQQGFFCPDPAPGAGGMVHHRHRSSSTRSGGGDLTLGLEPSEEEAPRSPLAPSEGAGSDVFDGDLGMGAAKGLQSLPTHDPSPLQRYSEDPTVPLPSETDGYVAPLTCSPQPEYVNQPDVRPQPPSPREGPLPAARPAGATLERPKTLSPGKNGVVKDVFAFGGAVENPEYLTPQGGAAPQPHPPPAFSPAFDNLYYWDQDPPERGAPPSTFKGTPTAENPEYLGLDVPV

The IC50 is the concentration that gives 50% inhibition. A higher IC50 goes with weaker potency. Turning to `COc1cc(N2CCN(CCS(C)(=O)=O)CC2)c(C)cc1Nc1nccc(-c2sc(C(C)C)nc2-c2cc(NS(=O)(=O)c3c(F)cccc3F)ccc2F)n1` [Example 144], the half-maximal inhibitory concentration (IC50) is below 0.1 µM on ErbB2; 0.1 to 1 µM in the experiment with Colo205 tumor cells; 0.1 to 1 µM against B-Raf; 0.1 to 1 µM at EGFR; 0.1 to 1 µM in the experiment with SK-MEL-28 tumor cells.
Regarding `CC(C)c1nc(-c2ccc(F)c(NS(=O)(=O)c3c(F)cccc3F)c2)c(-c2ccnc(Nc3ncc[nH]3)n2)s1` [Example 147], the IC50 is above 1 µM on ErbB2; 0.1 to 1 µM with Colo205 tumor cells; 0.1 to 1 µM at B-Raf; above 1 µM against EGFR; 0.1 to 1 µM in the experiment with SK-MEL-28 tumor cells.
Take `CC(C)c1nc(-c2ccc(F)c(NS(=O)(=O)c3c(F)cccc3F)c2)c(-c2ccnc(Nc3ccncn3)n2)s1` [Example 148]: the 50% inhibitory concentration (IC50) is above 1 µM against ErbB2; 0.1 to 1 µM in the experiment with Colo205 tumor cells; 0.1 to 1 µM against B-Raf; above 1 µM against EGFR; 0.1 to 1 µM with SK-MEL-28 tumor cells.
On to `COc1cc(N2CCN(CCS(C)(=O)=O)CC2)c(C)cc1Nc1nccc(-c2sc(C3CCCC3)nc2-c2cccc(NS(=O)(=O)c3c(F)cccc3F)c2)n1` [Example 149], for which the IC50 is 0.1 to 1 µM against ErbB2; below 0.1 µM in the experiment with Colo205 tumor cells; 0.1 to 1 µM against B-Raf; above 1 µM on EGFR; 0.1 to 1 µM in the experiment on SK-MEL-28 tumor cells.
Take `COc1cc(N2CCN(CCS(C)(=O)=O)CC2)c(C)cc1Nc1nccc(-c2sc(C3CCOCC3)nc2-c2cccc(NS(=O)(=O)c3c(F)cccc3F)c2)n1` [Example 150]: the IC50 on ErbB2, in the experiment with Colo205 tumor cells, against B-Raf, against EGFR and in the experiment with SK-MEL-28 tumor cells was below 0.1 µM each time.
In the case of `CCNc1nc(-c2cccc(NS(=O)(=O)c3c(F)cccc3F)c2)c(-c2ccnc(Nc3cc(C)c(N4CCN(CCS(C)(=O)=O)CC4)cc3OC)n2)s1` [Example 153], the IC50 is below 0.1 µM at ErbB2; below 0.1 µM in the experiment on Colo205 tumor cells; below 0.1 µM against B-Raf; below 0.1 µM against EGFR; 0.1 to 1 µM in the experiment on SK-MEL-28 tumor cells.
With `O=S(=O)(Nc1cccc(-c2nc(N3CCCCC3)sc2-c2ccnc(Nc3ccc(N4CCOCC4)c(F)c3)n2)c1)c1c(F)cccc1F` [Example 154], the half-maximal inhibitory concentration (IC50) on ErbB2 was above 1 µM; with Colo205 tumor cells, below 0.1 µM; at B-Raf, below 0.1 µM; against EGFR, above 1 µM; in the experiment with SK-MEL-28 tumor cells, below 0.1 µM.
Turning to `COc1cc(CCN2CCCCC2)c(F)cc1Nc1nccc(-c2sc(C(C)C)nc2-c2cccc(NS(=O)(=O)c3c(F)cccc3F)c2)n1` [Example 156], the concentration for half-maximal inhibition (IC50) against ErbB2 is 0.1 to 1 µM; in the experiment with Colo205 tumor cells it was 0.1 to 1 µM; on B-Raf it was below 0.1 µM; against EGFR, 0.1 to 1 µM; with SK-MEL-28 tumor cells, 0.1 to 1 µM.
For the compound `COc1cc(OC2CCN(CCS(C)(=O)=O)CC2)c(C)cc1Nc1nccc(-c2sc(C(C)C)nc2-c2cccc(NS(=O)(=O)c3c(F)cccc3F)c2)n1` [Example 158], the concentration for half-maximal inhibition (IC50) on ErbB2, with Colo205 tumor cells, at B-Raf, against EGFR and with SK-MEL-28 tumor cells was below 0.1 µM each time.
Consider `COc1cc(N2CCC3(CC2)CCN(S(C)(=O)=O)CC3)c(C)cc1Nc1nccc(-c2sc(C(C)C)nc2-c2cccc(NS(=O)(=O)c3c(F)cccc3F)c2F)n1` [Example 160], for which the IC50 is 0.1 to 1 µM against ErbB2; below 0.1 µM with Colo205 tumor cells; below 0.1 µM against B-Raf; 0.1 to 1 µM on EGFR; 0.1 to 1 µM in the experiment with SK-MEL-28 tumor cells.
Regarding `COc1cc(N2CCN(CCS(C)(=O)=O)CC2)c(C)cc1Nc1nccc(-c2sc(CC(C)C)nc2-c2cccc(NS(=O)(=O)c3c(F)cccc3F)c2)n1` [Example 161], the IC50 against ErbB2 was below 0.1 µM; with Colo205 tumor cells, below 0.1 µM; against B-Raf it was 0.1 to 1 µM; against EGFR, below 0.1 µM; with SK-MEL-28 tumor cells it was 0.1 to 1 µM.
On to `COc1cc(N2CCN(CCS(C)(=O)=O)CC2)c(C)cc1Nc1nccc(-c2scnc2-c2cccc(NS(=O)(=O)c3c(F)cccc3F)c2)n1` [Example 163], for which the IC50 against ErbB2 was below 0.1 µM; with Colo205 tumor cells it was 0.1 to 1 µM; against B-Raf it was 0.1 to 1 µM; against EGFR it was below 0.1 µM; with SK-MEL-28 tumor cells, 0.1 to 1 µM.
In the case of `COc1ccc(S(C)(=O)=O)cc1Nc1nccc(-c2sc(N3CCOCC3)nc2-c2cccc(NS(=O)(=O)c3c(F)cccc3F)c2Cl)n1` [Example 164], the concentration for half-maximal inhibition (IC50) against ErbB2 is above 1 µM; in the experiment on Colo205 tumor cells, below 0.1 µM; against B-Raf, below 0.1 µM; against EGFR it was above 1 µM; with SK-MEL-28 tumor cells, below 0.1 µM.
For `COc1ccc(S(C)(=O)=O)cc1Nc1nccc(-c2sc(C(C)C)nc2-c2cccc(NS(=O)(=O)c3c(F)cccc3F)c2F)n1` [Example 165], the IC50 at ErbB2 is 0.1 to 1 µM; in the experiment with Colo205 tumor cells, below 0.1 µM; against B-Raf, below 0.1 µM; against EGFR, 0.1 to 1 µM; with SK-MEL-28 tumor cells, below 0.1 µM.
For `COc1cc(OCCN2CCOCC2)c(C)cc1Nc1nccc(-c2sc(C(C)C)nc2-c2cccc(NS(=O)(=O)c3c(F)cccc3F)c2F)n1` [Example 171], the IC50 is 0.1 to 1 µM at ErbB2; below 0.1 µM in the experiment with Colo205 tumor cells; below 0.1 µM against B-Raf; 0.1 to 1 µM against EGFR; below 0.1 µM in the experiment on SK-MEL-28 tumor cells.
For `COc1ccc(S(C)(=O)=O)cc1Nc1nccc(-c2sc(C(C)C)nc2-c2cccc(NS(=O)(=O)c3c(F)cccc3F)n2)n1` [Example 172], the IC50 at ErbB2 is below 0.1 µM; with Colo205 tumor cells, above 1 µM; against B-Raf it was below 0.1 µM; against EGFR, 0.1 to 1 µM; with SK-MEL-28 tumor cells, above 1 µM.
Consider `COc1cc(N2CCN(CCS(C)(=O)=O)CC2)c(C)cc1Nc1nccc(-c2sc(C(C)C)nc2-c2cccc(NS(=O)(=O)c3cnn(C)c3)c2)n1` [Example 173], for which the IC50 at ErbB2 is 0.1 to 1 µM; with Colo205 tumor cells it was 0.1 to 1 µM; against B-Raf it was 0.1 to 1 µM; against EGFR it was above 1 µM; with SK-MEL-28 tumor cells, 0.1 to 1 µM.
With `CC(C)c1nc(-c2cccc(NS(=O)(=O)c3cnn(C)c3)c2)c(-c2ccnc(Nc3ccc(N4CCOCC4)nc3)n2)s1` [Example 174], the half-inhibitory concentration (IC50) is above 1 µM against ErbB2; below 0.1 µM in the experiment with Colo205 tumor cells; below 0.1 µM against B-Raf; above 1 µM at EGFR; below 0.1 µM in the experiment on SK-MEL-28 tumor cells.
As to `COc1cc(N2CCN(CCS(C)(=O)=O)CC2)c(C)cc1Nc1nccc(-c2sc(C3CC3)nc2-c2cccc(NS(=O)(=O)c3c(F)cccc3F)c2)n1` [Example 175], the concentration for half-maximal inhibition (IC50) against ErbB2 is below 0.1 µM; in the experiment on Colo205 tumor cells it was below 0.1 µM; on B-Raf it was 0.1 to 1 µM; at EGFR it was 0.1 to 1 µM; in the experiment with SK-MEL-28 tumor cells, 0.1 to 1 µM.
`CC(C)c1nc(-c2cccc(NS(=O)(=O)c3c(F)cccc3F)c2)c(-c2ccnc(Nc3ccc(N4CCN(CCS(C)(=O)=O)CC4)cc3C(F)(F)F)n2)s1` [Example 176]: the IC50 against ErbB2 is above 1 µM; in the experiment with Colo205 tumor cells, below 0.1 µM; against B-Raf, below 0.1 µM; against EGFR, above 1 µM; in the experiment with SK-MEL-28 tumor cells, below 0.1 µM.
As for `COc1cc(N2CCN(CCS(C)(=O)=O)CC2)c(C)cc1Nc1nccc(-c2sc(C3CCOCC3)nc2-c2cccc(NS(=O)(=O)c3c(F)cccc3F)c2F)n1` [Example 177], the concentration for half-maximal inhibition (IC50) on ErbB2, with Colo205 tumor cells, on B-Raf, on EGFR and with SK-MEL-28 tumor cells was below 0.1 µM each time.

Source of the values: patent US20110319392A1, “Thiazole Sulfonamide And Oxazole Sulfonamide Kinase Inhibitors” (priority 2009, published 2011).
